Measurements from ChEMBL document CHEMBL3632608, “Effects of alkyl side chains and terminal hydrophilicity on vitamin D receptor (VDR) agonistic activity based on the diphenylpentane skeleton” (Bioorg Med Chem Lett, 2015).
The source made the active and inactive calls. No cut-off for these calls is given here.

Assays:
Format in all cases: cell-based
[1] = target: T1, Vitamin D3 receptor (Homo sapiens) (UniProt P11473); test: Agonist activity at human VDR expressed in HEK293 cells co-expressing CMX-GAL4N and TK-MH100x4-LUC assessed as induction of transcriptional activity at 3 uM by beta-galactosidase reporter gene assay relative to 1alpha,25(OH)2VD3
T1 sequence (whole entry): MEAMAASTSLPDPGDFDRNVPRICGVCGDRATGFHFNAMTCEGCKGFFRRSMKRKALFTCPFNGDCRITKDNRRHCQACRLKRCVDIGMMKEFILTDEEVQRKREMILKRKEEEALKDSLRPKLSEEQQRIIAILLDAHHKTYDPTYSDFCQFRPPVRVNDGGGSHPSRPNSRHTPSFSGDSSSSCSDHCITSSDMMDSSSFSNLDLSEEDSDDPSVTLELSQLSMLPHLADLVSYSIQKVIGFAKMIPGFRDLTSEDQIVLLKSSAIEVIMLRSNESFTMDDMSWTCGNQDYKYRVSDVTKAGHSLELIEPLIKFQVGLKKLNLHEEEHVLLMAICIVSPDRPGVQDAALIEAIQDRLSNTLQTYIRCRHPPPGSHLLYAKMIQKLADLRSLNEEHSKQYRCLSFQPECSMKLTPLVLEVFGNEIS

[2] = target: T1, Vitamin D3 receptor (Homo sapiens); test: Agonist activity at VDR in human HL60 cells assessed as induction of cell differentiation at 10 uM by NBT reduction assay; details: HL-60
[3] = target: T1, Vitamin D3 receptor (Homo sapiens); test: Agonist activity at human VDR expressed in HEK293 cells co-expressing CMX-GAL4N and TK-MH100x4-LUC assessed as induction of transcriptional activity at 10 uM by beta-galactosidase reporter gene assay relative to 1alpha,25(OH)2VD3
Vitamin D3 receptor = target: T2, Vitamin D3 receptor (Homo sapiens, UniProt P11473); test: Agonist activity at human VDR expressed in HEK293 cells co-expressing CMX-GAL4N and TK-MH100x4-LUC assessed as induction of transcriptional activity by beta-galactosidase reporter gene assay
T2 sequence (P11473 whole entry): T1 sequence (whole entry)

[4] = target: T1, Vitamin D3 receptor (Homo sapiens); test: Antagonist activity at human VDR expressed in HEK293 cells co-expressing CMX-GAL4N and TK-MH100x4-LUC assessed as inhibition of 1alpha,25(OH)2VD3-induced transcriptional activity up to 10 uM by beta-galactosidase reporter gene assay

Compound	Activity [1] [%]	Activity [2] [%]	Activity [3] [%]	EC50 (Vitamin D3 receptor; read-out: EC50) [µM]	inhibition [4]	EC50 (Vitamin D3 receptor; hek293)
CCC(CC)(c1ccc(OC[C@@H](O)CO)c(C)c1)c1ccc(OC[C@H](O)C(C)(C)OCCCCCCCCO)c(C)c1	77	37.6	100	1.2	inactive	–
CCCCCCCCOC(C)(C)[C@@H](O)COc1ccc(C(CC)(CC)c2ccc(OC[C@@H](O)CO)c(C)c2)cc1C	–	–	–	–	–	Not Active
CCCCCCOC(C)(C)[C@H](O)COc1ccc(C(CC)(CC)c2ccc(OC[C@@H](O)CO)c(C)c2)cc1C	19	–	22	> 10	inactive	–
CCCCCCCCCCOC(C)(C)[C@H](O)COc1ccc(C(CC)(CC)c2ccc(OC[C@@H](O)CO)c(C)c2)cc1C	–	–	–	–	–	Not Active
CCCCCCCCOC(C)(C)[C@H](O)COc1ccc(C(CC)(CC)c2ccc(OC[C@@H](O)CO)c(C)c2)cc1C	–	–	–	–	–	Not Active

Further lines, results first:

Activity [1] [%]	Activity [2] [%]	Activity [3] [%]	EC50 (Vitamin D3 receptor; read-out: EC50) [µM]	inhibition [4]	EC50 (Vitamin D3 receptor; hek293)	Compound
–	–	–	–	–	Not Active	CCCCCCCCCCOC(C)(C)[C@@H](O)COc1ccc(C(CC)(CC)c2ccc(OC[C@@H](O)CO)c(C)c2)cc1C
37	25.1	47	1.5	inactive	–	CCCCCCOC(C)(C)[C@@H](O)COc1ccc(C(CC)(CC)c2ccc(OC[C@@H](O)CO)c(C)c2)cc1C
40	18.8	–	> 3	inactive	–	CCC(CC)(c1ccc(OC[C@@H](O)CO)c(C)c1)c1ccc(OC[C@@H](O)C(C)(C)OCCCCCCCCO)c(C)c1
